Test results published in patent US20240165281A1, “DUAL MODE RADIOTRACER AND THERAPEUTICS” (Technische Universität München, priority 2021, published 2024).

What was measured:
[1] = Apparent molecular weight (MWapp)
LNCaP tumor-bearing mice = test: μSPECT/CT imaging with tumor uptake; format: in vivo
Procedure: Static images were recorded of sacrificed mice, 24 h p.i. directly after blood collection, with an acquisition time of 45 min using the HE-GP-RM collimator and a step-wise multi-planar bed movement. For imaging studies, a MILabs VECTor4 small-animal SPECT/PET/OI/CT from MILabs (Utrecht, Netherlands) was applied. Furthermore, data were reconstructed using the MILabs-Rec software (version 10.02) and a pixel-based Similarity-Regulated Ordered Subsets Expectation Maximization (SROSEM) algorithm with a window-based scatter correction (20% below and 20% above the photopeak, respectively). Moreover, further data analysis was accomplished using the PMOD4.0 software acquired from PMOD TECHNOLOGIES LLC (Zurich, Switzerland) at defined settings (voxel size CT: 80 μm, voxel size SPECT: 0.8 mm, 1.6 mm (FWHM) Gaussian blurring post processing filter, with calibration factor in kBq/mL and decay correction and no attenuation correction).

PSMA = target: T1, PSMA (Homo sapiens, UniProt Q04609); test: PSMA affinity (IC50), competition with [125I]I-BA-KuE on LNCaP cells; format: binding; conditions: natLu complex, on ice 60 min, read-out: IC50
T1 construct: PSMA-positive LNCAP cells (300265; Cell Lines Service, Eppelheim, Germany); host or cells: LNCaP cells
T1 sequence (Q04609 whole entry): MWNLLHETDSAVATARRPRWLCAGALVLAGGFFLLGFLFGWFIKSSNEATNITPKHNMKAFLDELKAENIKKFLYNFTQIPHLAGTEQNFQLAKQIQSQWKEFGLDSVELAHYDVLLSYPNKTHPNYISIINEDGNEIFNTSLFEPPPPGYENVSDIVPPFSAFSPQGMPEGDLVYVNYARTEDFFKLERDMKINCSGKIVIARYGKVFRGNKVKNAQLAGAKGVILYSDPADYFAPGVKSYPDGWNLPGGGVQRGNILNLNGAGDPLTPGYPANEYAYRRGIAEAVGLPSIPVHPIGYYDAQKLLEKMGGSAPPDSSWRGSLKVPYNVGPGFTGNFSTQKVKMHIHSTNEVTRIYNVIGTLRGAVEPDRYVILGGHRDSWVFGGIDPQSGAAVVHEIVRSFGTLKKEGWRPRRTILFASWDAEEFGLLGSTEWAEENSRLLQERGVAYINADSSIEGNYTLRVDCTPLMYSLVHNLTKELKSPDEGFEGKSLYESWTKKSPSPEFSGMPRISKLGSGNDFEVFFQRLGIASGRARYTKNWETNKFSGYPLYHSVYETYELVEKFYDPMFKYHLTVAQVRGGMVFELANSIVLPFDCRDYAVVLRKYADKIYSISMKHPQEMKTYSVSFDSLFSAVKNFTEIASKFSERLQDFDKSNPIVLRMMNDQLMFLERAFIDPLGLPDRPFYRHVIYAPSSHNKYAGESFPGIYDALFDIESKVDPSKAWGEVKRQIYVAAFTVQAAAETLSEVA
Procedure: A mixture of trypsin and EDTA (0.05%, 0.02%) in PBS (Biochrom) was used in order to harvest cells. Cells were counted with a Neubauer hemocytometer (Paul Marienfeld, Lauda-Königshofen, Germany).
Affinity Determinations (IC50)
In the case of metal-complexed ligands, the crude reaction mixture was diluted analogously, without further purification. Cells were harvested 24±2 hours prior to the experiment and seeded in 24-well plates (1.5×10^5 cells in 1 mL/well). […] The media of both steps were combined in one fraction and represent the amount of free radioligand. Afterwards, the cells were lysed with 250 μL of 1 M aqueous NaOH for at least 10 min. After a washing step (250 μL of 1 M NaOH), both fractions, representing the amount of bound ligand, were united. Quantification of all collected fractions was accomplished in a γ-counter. PSMA-affinity determinations were carried out at least three times per ligand.

[2] = Octanol-water partition coefficient (log D7.4); format: physicochemical; conditions: PBS pH 7.4 / n-octanol, 177Lu-labelled
Procedure: Octanol-Water Partition Coefficient (log D7.4)
Approximately 1 MBq of the labelled tracer was dissolved in 1 mL of a 1:1 mixture (v/v) of PBS (pH 7.4) and n-octanol in a reaction vial (1.5 mL). After vigorous mixing of the suspension for 3 minutes at room temperature, the vial was centrifuged at 15000 g for 3 minutes (Biofuge 15, Heraus Sepatech, Osterode, Germany) and 100 μL aliquots of both layers were measured in a gamma counter. The experiment was repeated at least six times.

CC(C)(C)[Si](F)(c1ccc(C(=O)NC[C@@H](NC(=O)CN2CCN(CC(=O)O)CCN(CC(=O)O)CCN(CC(=O)O)CC2)C(=O)N[C@H](CO)C(=O)NCCC(=O)NCCC(=O)NCCC[C@@H](NC(=O)CC[C@H](NC(=O)N[C@@H](CCC(=O)O)C(=O)O)C(=O)O)C(=O)O)cc1)C(C)(C)C [Compound 2C013]
MWapp [1]: 17.6 kDa | kidney uptake (FIG. 5, in words) (LNCaP tumor-bearing mice; 24 h p.i., versus [177Lu]rhPSMA-7.3 and [177Lu]PSMA-I&T): lower kidney uptake than the previously known compounds | tumor uptake of the scanned mouse (FIG. 1) (LNCaP tumor-bearing mice; μSPECT/CT scan, single animal): 9.8 % iD/g | IC50 (PSMA): 4.44 nM | logD7.4 [2]: −3.30 ± 0.06
